± gives the standard deviation of the averaged measurements.
Assays:
Test in all cases: level (log10 ratio to DMSO vehicle control); higher = higher biomarker level / cell amount than vehicle control
Conditions in all cases: in DMSO
[1] = compound: O=S(=O)(O)C(F)(F)C(F)(F)C(F)(F)C(F)(F)C(F)(F)C(F)(F)C(F)(F)C(F)(F)F [Perfluorooctanesulfonic acid]
Protocol: (§1)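 BioMAP Diversity Plus panel of 12 human primary cell co-culture systems (3C, 4H, LPS, SAg, BT, BF4T, BE3C, CASM3C, HDF3CGF, KF3CT, MyoF, Mphg). Compounds were added 1 h before stimulation and left for 24 h (MyoF 48 h; BT 72 h for soluble read-outs or 6 d for IgG). Biomarkers were read by ELISA, cytotoxicity by SRB, PBMC viability and proliferation by Alamar Blue. Each well value was divided by the mean of 8 DMSO control wells on the same plate and log10 transformed; duplicate blinded samples were tested at 4 concentrations.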

Perfluorohexanoic acid = compound: O=C(O)C(F)(F)C(F)(F)C(F)(F)C(F)(F)C(F)(F)F [Perfluorohexanoic acid]
Protocol: as §1

[2] = compound: FC(F)(F)C(F)(F)C(F)(F)C(F)(F)C(F)(F)C(F)(F)C(F)(F)CCI [1-Iodo-1H,1H,2H,2H-perfluorononane]
Protocol: as §1

[3] = compound: O=C(O)C(F)(F)C(F)(F)C(F)(F)C(F)(F)C(F)(F)C(F)(F)C(F)(F)C(F)(F)C(F)(F)C(F)(F)C(F)(F)C(F)(F)C(F)(F)F [Perfluorotetradecanoic acid]
Protocol: as §1

[4] = compound: C=CC(=O)OCCC(F)(F)C(F)(F)C(F)(F)C(F)(F)F [2-(Perfluorobutyl)ethyl acrylate]
Protocol: as §1

Hexafluoroglutaric acid = compound: O=C(O)C(F)(F)C(F)(F)C(F)(F)C(=O)O [Hexafluoroglutaric acid]
Protocol: as §1

[5] = compound: O=S(=O)(O)C(F)(F)C(F)(F)C(F)(F)C(F)(F)C(F)(F)C(F)(F)C(F)(F)C(F)(F)F [Potassium perfluorooctanesulfonate]
Protocol: as §1

| Test System | level (log10) ([1]; 6700 nM) | level (log10) ([1]; 20000 nM) | level (log10) ([1]; 60000 nM) | level (log10) (Perfluorohexanoic acid; 6700 nM) | level (log10) (Perfluorohexanoic acid; 20000 nM) | level (log10) (Perfluorohexanoic acid; 60000 nM) | level (log10) ([2]; 6700 nM) | level (log10) ([2]; 20000 nM) | level (log10) ([3]; 6700 nM) | level (log10) ([3]; 20000 nM) | level (log10) ([4]; 6700 nM) | level (log10) ([4]; 20000 nM) | level (log10) ([4]; 60000 nM) | level (log10) (Hexafluoroglutaric acid; 6700 nM) | level (log10) (Hexafluoroglutaric acid; 20000 nM) | level (log10) (Hexafluoroglutaric acid; 60000 nM) | level (log10) ([5]; 6700 nM) | level (log10) ([5]; 20000 nM) | level (log10) ([5]; 60000 nM) |
| --- | --- | --- | --- | --- | --- | --- | --- | --- | --- | --- | --- | --- | --- | --- | --- | --- | --- | --- | --- |
| BE3C:CXCL8/IL-8 | -0.0875 ± 0.0035 | -0.136 ± 0.0021 | -0.348 ± 0.25 | 0.0095 ± 0.042 | 0.0135 ± 0.00071 | 0.017 ± 0.021 | 0.018 ± 0.11 | 0.0505 ± 0.12 | -0.005 ± 0.055 | 0.0365 ± 0.052 | 0.006 ± 0.025 | -0.0165 ± 0.06 | -0.016 ± 0.095 | -0.011 ± 0.014 | -0.0165 ± 0.0064 | -0.011 ± 0.02 | -0.053 ± 0.065 | -0.112 ± 0.035 | -0.082 ± 0.024 |
| BE3C:CXCL9/MIG | 0.0105 ± 0.0078 | -0.011 ± 0.021 | -0.513 ± 0.32 | 0.005 ± 0.0014 | 0 ± 0.0099 | 0.001 ± 0.0099 | -0.0085 ± 0.0035 | -0.0015 ± 0.0092 | -0.016 ± 0.02 | -0.006 ± 0.017 | 0.0005 ± 0.005 | -0.0085 ± 0.005 | 0.003 ± 0.0057 | 0.001 ± 0.0042 | 0.008 | -0.0055 ± 0.0021 | 0.0095 ± 0.0064 | -0.014 ± 0.024 | -0.039 ± 0.021 |
| BE3C:CXCL10/IP-10 | -0.0365 ± 0.013 | -0.478 ± 0.054 | -0.7725 ± 0.0035 | 0.0095 ± 0.018 | 0.0125 ± 0.0092 | 0.0245 ± 0.011 | 0 ± 0.016 | 0.0025 ± 0.011 | 0.008 ± 0.0042 | -0.0275 ± 0.019 | -0.0025 ± 0.00071 | -0.007 ± 0.0057 | -0.012 ± 0.013 | -0.001 ± 0.0042 | -0.0085 ± 0.00071 | 0.0015 ± 0.023 | -0.0455 ± 0.0035 | -0.505 ± 0.0057 | -0.589 ± 0.014 |
| BE3C:CXCL11/I-TAC | -0.0085 ± 0.00071 | -0.0735 ± 0.028 | -0.555 ± 0.15 | 0.008 ± 0.014 | 0.0065 ± 0.0064 | 0.027 ± 0.0042 | -0.004 ± 0.0057 | -0.001 ± 0.0042 | -0.073 ± 0.052 | -0.0135 ± 0.071 | 0.0035 ± 0.00071 | -0.0065 ± 0.012 | -0.018 ± 0.0028 | 0.0045 ± 0.028 | -0.002 ± 0.024 | 0.0045 ± 0.013 | -0.002 ± 0.0042 | -0.113 ± 0.012 | -0.203 ± 0.024 |
| BE3C:EGFR | 0.0025 ± 0.023 | -0.125 ± 0.059 | -0.159 ± 0.12 | 0.003 ± 0.0014 | -0.005 ± 0.0028 | 0.0025 ± 0.015 | 0.005 ± 0.014 | -0.008 ± 0.02 | 0.01 ± 0.014 | 0.0145 ± 0.044 | -0.003 | -0.0065 ± 0.00071 | -0.014 ± 0.023 | -0.0055 ± 0.0035 | -0.0175 ± 0.005 | 0.0025 ± 0.012 | -0.012 ± 0.021 | -0.173 ± 0.043 | -0.182 ± 0.071 |
| BE3C:HLA-DR | -0.0155 ± 0.016 | -0.189 ± 0.014 | -0.409 ± 0.1 | -0.0025 ± 0.0021 | -0.011 ± 0.0028 | -0.012 ± 0.0099 | -0.0065 ± 0.0035 | -0.0225 ± 0.0092 | -0.013 ± 0.041 | -0.0135 ± 0.06 | 0.0145 ± 0.022 | -0.02 ± 0.0071 | -0.0575 ± 0.005 | -0.006 | -0.017 ± 0.0014 | -0.021 ± 0.028 | -0.012 ± 0.018 | -0.194 ± 0.023 | -0.191 ± 0.042 |
| BE3C:IL-1alpha | 0.0315 ± 0.023 | 0.0055 ± 0.016 | -0.237 ± 0.2 | 0.005 ± 0.0071 | -0.0115 ± 0.0035 | -0.002 ± 0.0042 | -0.0075 ± 0.0078 | 0.0075 ± 0.026 | 0 ± 0.033 | 0.0145 ± 0.005 | -0.0035 ± 0.022 | -0.0305 ± 0.03 | -0.012 ± 0.0057 | -0.014 ± 0.027 | -0.0295 ± 0.005 | -0.0045 ± 0.016 | 0.022 ± 0.0042 | 0.02 ± 0.0071 | -0.0105 ± 0.03 |
| BF4T:CCL2/MCP-1 | 0.0145 ± 0.005 | 0.0095 ± 0.035 | -0.0565 ± 0.21 | -0.0045 ± 0.0021 | -0.012 ± 0.024 | -0.0015 ± 0.052 | -0.0135 ± 0.015 | -0.0245 ± 0.066 | 0.0095 ± 0.016 | 0.0045 ± 0.012 | -0.009 ± 0.013 | -0.01 ± 0.0028 | -0.0325 ± 0.029 | 0.0015 ± 0.043 | -0.0225 ± 0.005 | 0.0085 ± 0.032 | 0.005 ± 0.072 | 0.0255 ± 0.022 | 0.07 ± 0.016 |
| BF4T:CCL26/Eotaxin-3 | -0.0595 ± 0.026 | -0.155 ± 0.0085 | -0.192 ± 0.097 | 0.0135 ± 0.015 | 0.005 ± 0.024 | 0.0115 ± 0.011 | -0.0075 ± 0.0021 | -0.061 ± 0.0099 | -0.074 ± 0.0057 | -0.057 ± 0.059 | -0.0005 ± 0.018 | -0.0295 ± 0.023 | -0.019 ± 0.02 | 0.016 ± 0.054 | 0.0055 ± 0.042 | 0.043 ± 0.011 | -0.0775 ± 0.074 | -0.146 ± 0.056 | -0.126 ± 0.0064 |
| BF4T:CD54/ICAM-1 | -0.0065 ± 0.019 | -0.0115 ± 0.028 | -0.018 ± 0.014 | -0.011 ± 0.0014 | -0.0135 ± 0.0064 | -0.0005 ± 0.0021 | -0.007 ± 0.018 | -0.0345 ± 0.0064 | -0.002 ± 0.0099 | 0.0175 ± 0.025 | -0.0085 ± 0.0078 | -0.013 ± 0.0099 | -0.064 ± 0.014 | 0.0025 ± 0.005 | -0.01 ± 0.0057 | 0.006 ± 0.011 | 0.0055 ± 0.032 | 0.0025 ± 0.012 | 0.0215 ± 0.035 |
| BF4T:CD90 | -0.0015 ± 0.011 | 0.005 ± 0.0014 | 0.0135 ± 0.0021 | -0.0045 ± 0.011 | -0.0005 ± 0.011 | -0.007 ± 0.011 | -0.0245 ± 0.021 | -0.0345 ± 0.0021 | -0.0125 ± 0.011 | -0.005 ± 0.0042 | -0.017 ± 0.0028 | -0.025 ± 0.0099 | -0.016 ± 0.0071 | 0.0025 ± 0.0092 | 0.009 ± 0.0042 | 0.0175 ± 0.005 | 0.0085 ± 0.0064 | -0.0075 ± 0.00071 | 0.0075 ± 0.019 |
| BF4T:CD106/VCAM-1 | -0.0065 ± 0.0021 | -0.0155 ± 0.012 | -0.016 ± 0.03 | 0.0025 ± 0.042 | -0.0145 ± 0.0078 | -0.017 ± 0.017 | -0.027 ± 0.0085 | -0.061 ± 0.014 | -0.011 ± 0.014 | -0.037 ± 0.031 | 0.005 ± 0.0042 | -0.033 ± 0.025 | -0.08 ± 0.0028 | -0.0055 ± 0.023 | -0.0095 ± 0.0078 | -0.002 ± 0.017 | 0.0115 ± 0.015 | -0.014 ± 0.0099 | 0.01 ± 0.052 |
| BF4T:CXCL8/IL-8 | -0.0155 ± 0.00071 | -0.032 ± 0.014 | -0.0185 ± 0.059 | -0.0055 ± 0.025 | 0.0155 ± 0.0078 | 0.0415 ± 0.042 | -0.0015 ± 0.018 | 0.011 ± 0.025 | 0.0325 ± 0.012 | 0.0275 ± 0.028 | -0.006 ± 0.023 | -0.0105 ± 0.025 | 0.005 ± 0.027 | 0.0125 ± 0.039 | 0.009 ± 0.041 | 0.0345 ± 0.0035 | 0.0005 ± 0.052 | -0.0105 ± 0.047 | 0.0205 ± 0.0078 |
| BF4T:IL-1alpha | 0.01 ± 0.011 | 0.002 ± 0.0014 | -0.002 ± 0.0099 | -0.001 ± 0.0042 | -0.0035 ± 0.012 | 0.007 ± 0.0042 | -0.011 ± 0.0042 | 0.033 ± 0.031 | -0.014 ± 0.013 | 0.0235 ± 0.032 | -0.0115 ± 0.0078 | -0.0305 ± 0.011 | 0.012 ± 0.038 | -0.0065 ± 0.015 | -0.0195 ± 0.0035 | -0.0045 ± 0.033 | 0.003 ± 0.0028 | 0.0065 ± 0.0078 | 0.0125 ± 0.044 |
| BF4T:Keratin 8/18 | -0.009 ± 0.0014 | -0.0015 ± 0.0021 | 0.0135 ± 0.021 | 0.017 ± 0.028 | 0.0165 ± 0.015 | -0.006 ± 0.037 | -0.016 ± 0.052 | -0.0135 ± 0.0092 | -0.0135 ± 0.015 | 0.0195 ± 0.032 | -0.003 ± 0.055 | 0.0035 ± 0.059 | 0.0085 ± 0.036 | -0.006 ± 0.013 | -0.0145 ± 0.015 | 0.0005 ± 0.00071 | -0.0035 ± 0.022 | 0.01 ± 0.014 | 0.0385 ± 0.053 |
